The record followed here is paper PMC7175277, “Hydroxylamine Analogue of Agmatine: Magic Bullet for Arginine Decarboxylase” (Biomolecules, 2020).

One assay addresses E. coli ODC (Escherichia coli, UniProt P21169). As to the kind of experiment: E. coli ODC activity assay (HPLC of Put). It is filed as biochemical. As to the method:
The purification was performed using a modified procedure of earlier publication. E. coli strain DH5α was grown in Luria-Bertani broth at +37 °C with shaking (200 rpm) overnight. The cells were collected by centrifugation and the pellet was homogenized with Potter-Elvehjem in 10 volumes (w/v) of ice-cold 50 mM Tris-HCl pH 7.4, 1 mM DTT. The cell debris was removed by centrifugation at 12,000 g for 30 min at +4 °C. Solid (NH4)2SO4 was added to the supernatant, and the pellet precipitating between 39% and 53% saturation was separated. The precipitate was resuspended in ice-cold buffer containing 50 mM Tris-HCl pH 7.4 and 1 mM DTT and desalted by passage through Sephadex G-25 column (NAP-10 column, GE Healthcare). The protein concentration was measured with Bio-Rad protein reagent, and the partially purified enzyme preparation was mixed with 20% glycerol and aliquoted for storage at −80 °C.
The ADC reaction mixture contained 50 mM Tris-HCl pH 7.8, 4 mM MgCl2, 1 mM DTT, 1.0 or 0.1 mM PLP and 20 μg of partially purified enzyme preparation in a total volume of 162 μL. The ODC reaction mixture contained 50 mM Tris-HCl pH 7.8, 1 mM EDTA, 2.4 mM DTT, 0.1 mM PLP and 20 μg of partially purified enzyme preparation. […] After incubation for 30 min (ADC) or 20 min (ODC) at +40 °C, 20 μL of 50% sulphosalicylic acid containing 50 μM diaminoheptane (internal standard) was added and the samples were analyzed for the content of agmatine (ADC) and Put (ODC) with HPLC as described previously. The kinetic parameters and IC50 values were determined with the aid of GraphPad Prism version 5.03 using nonlinear regression analysis.

Another assay addresses T1, mouse kidney ODC (Mus musculus, UniProt P00860).
T1 construct: from tissue; host or cells: C57Bl/6J male mouse kidney, 12,000 g supernatant of the homogenate
T1 sequence (P00860 1-461): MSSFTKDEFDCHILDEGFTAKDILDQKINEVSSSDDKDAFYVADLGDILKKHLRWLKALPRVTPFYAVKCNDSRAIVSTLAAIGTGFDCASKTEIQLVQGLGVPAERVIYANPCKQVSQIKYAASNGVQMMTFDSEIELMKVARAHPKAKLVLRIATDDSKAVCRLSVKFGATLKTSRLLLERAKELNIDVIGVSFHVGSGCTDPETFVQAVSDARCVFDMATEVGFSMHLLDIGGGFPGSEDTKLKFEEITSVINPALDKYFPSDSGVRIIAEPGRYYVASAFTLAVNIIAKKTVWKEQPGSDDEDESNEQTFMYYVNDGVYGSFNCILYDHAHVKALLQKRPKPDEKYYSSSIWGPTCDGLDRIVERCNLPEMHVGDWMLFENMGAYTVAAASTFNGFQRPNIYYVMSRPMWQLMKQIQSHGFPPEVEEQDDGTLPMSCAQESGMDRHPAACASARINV
As to the kind of experiment: Assay of mouse kidney ODC activity. In kind it is biochemical. The note with it: 0.4 mM L-Orn; 0.4 mM PLP. As to the method:
C57Bl/6J male mouse kidney was homogenized with TissueLyzer (Qiagen) to 2 volumes of buffer containing 50 mM Tris-HCl pH 7.4, 1 mM DTT, 1 mM EDTA, 0.1% Triton X-100 and 1× Complete EDTA-free protease inhibitor cocktail (Roche) and centrifuged at 12,000 g for 30 min at +4 °C. Aliquots of the supernatant were mixed with 1–5000 μM of AO-Agm and the ODC assay was carried out as previously described. The reaction mixture contained 0.4 mM PLP and 0.4 mM L-Orn.

The term IC50 denotes the concentration that gives 50% inhibition. Lower therefore signals greater potency in that assay.

Entries after “also recorded” stand apart in the source; their conditions may differ.

Chain of E. coli ODC (P21169 whole entry): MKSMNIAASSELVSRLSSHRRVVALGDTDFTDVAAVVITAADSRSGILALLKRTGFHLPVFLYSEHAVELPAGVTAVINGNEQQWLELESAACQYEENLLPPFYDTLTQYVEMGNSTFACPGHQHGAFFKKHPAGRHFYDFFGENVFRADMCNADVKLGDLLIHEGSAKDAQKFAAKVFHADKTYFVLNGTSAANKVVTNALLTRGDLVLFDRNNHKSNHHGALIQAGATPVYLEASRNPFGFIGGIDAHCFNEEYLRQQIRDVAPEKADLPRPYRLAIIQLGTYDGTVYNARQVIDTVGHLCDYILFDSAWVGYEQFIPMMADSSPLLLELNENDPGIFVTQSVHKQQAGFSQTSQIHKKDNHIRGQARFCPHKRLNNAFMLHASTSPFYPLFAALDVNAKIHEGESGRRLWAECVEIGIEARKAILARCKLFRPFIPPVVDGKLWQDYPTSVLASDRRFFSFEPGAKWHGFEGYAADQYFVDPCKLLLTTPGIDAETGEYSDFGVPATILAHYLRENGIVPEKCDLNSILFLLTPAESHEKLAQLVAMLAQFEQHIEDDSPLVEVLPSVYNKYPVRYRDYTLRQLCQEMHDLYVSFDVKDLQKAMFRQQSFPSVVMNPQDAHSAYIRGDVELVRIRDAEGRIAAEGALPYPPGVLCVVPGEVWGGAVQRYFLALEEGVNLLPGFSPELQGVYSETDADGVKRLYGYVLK

Regarding `N=C(N)NCCCON` [AO-Agm, 1-aminooxy-3-guanidinopropane], at E. coli ODC, the “Potency towards E. coli ODC relative to E. coli ADC” value was “almost two orders of magnitude less potent; also recorded: almost two orders of magnitude less efficient”. Besides, half-maximal inhibition against mouse kidney ODC (IC50) required 5.3 ± 0.7 µM.
